Experiments:
[1] = test system: T cells; experiment: Cytoplasmic citrate and AcCoA quantification in treated T cells; type: cell-based, mouse
Method: T cells (n=3) cultured in control or potassium hydroxycitrate conditions were collected and washed in PBS to perform the total and cytoplasmic AcCoA and citrate levels. Samples were homogenized in 1% TRITON X-100 nonionic surfactant, 20 mM Tris-HCl, pH=7.4, 150 mM NaCl on ice for 10 min (Sigma Acetyl-Coenzyme A Assay Kit—MAK039) or citrate buffer (Sigma Citrate Assay Kit—MAK057) (Sigma, St. Louis, MO) as per the directions provided in the kit. For total AcCoA quantification, pelleted cells were extracted using 80% methanol or 5% sulfo-salicylic acid with 50 μM DTT. After cell lysis, samples were deproteinized with a 10 kDa molecular weight cut-off (MWCO) spin filter prior to the assay. AcCoA concentrations were interpolated with AcCoA standards using fluorometric assay (Ex=535, Em=587) or by mass spectrometry. Citrate concentrations were interpolated with citrate standards using colorimetric assay (570 nm). […]
Cytoplasmic citrate and cytoplasmic AcCoA were quantified following treatment of cells with potassium hydroxycitrate or negative control. […]
Cytoplasmic AcCoA was quantified following treatment with a combination of potassium hydroxycitrate and 5 mM acetate, potassium hydroxycitrate only, or control (neither potassium hydroxycitrate nor acetate) (FIG. 14).

[2] = test system: IFN-γ locus in CD8+ Pmel-1 cells; experiment: ChIP-PCR of H3K9Ac deposition at the IFN-γ locus; type: cell-based, mouse; details: vs negative control; FIG. 2C
Method: Chromatin Immunoprecipitations were performed with validated antibodies from previous literatures (Gray et al., Immunity, 46(4): 596-608 (2017); Peng et al., Science, 354(6311): 481-484 (2016)) and protocols were followed according to manufacturing instructions provided by the CHIP-IT express shearing kit (Active Motif, Carlsbad, CA). Briefly, CD8+ Pmel-1 cells were fixed with formaldehyde for 7 minutes on a rocking platform and quenched with 1× of Glycine. Cells were pelleted with phenylmethylsulfonyl fluoride (PMSF) and protein inhibition cocktail and stored at −80 prior to cell lysis. Thawed cells were suspended in ice cold lysis buffer to obtain nuclei material. Nuclei material was sheared by incubating with enzymatic cocktail for 15 minutes at 37° C. Sheared chromatin with a total of 7.5 μg/sample was incubated with protein G magnetic beads with anti-H3K27Ac (Abcam Cat #ab4729), H3k9Ac (Abcam Cat #ab4441) (Abcam, Cambridge, UK) and anti IgG at 4° C. overnight. Magnetic beads were washed with buffers to remove unbound immune complexes and eluted with 150 μl of elution buffer. […] Concentration of the ChIP DNA was measured with high sensitive DNA assay protocol on tape station to normalize the DNA. Samples were sequenced on illumina Next seq system (Illumina, San Diego, CA) with 75 bp reads in single end mode with approximately 40M reads per sample. […]

[3] = test system: T cells; experiment: Autophagy flux, GFP-mCherry-LC3b reporter, flow cytometry; type: cell-based, mouse
[4] = test system: CD8+ Pmel-1 T cells; experiment: Flow cytometry of CD62L/CD44 and IFN-γ production; type: cell-based, mouse; details: 5 mM
Method: CD8^+ T cells from Pmel-1 mice were stimulated in vitro with 1 μM hgp10025-33 peptide for 5 days and secondary restimulation was done with plate-bound anti-CD3 (1 μg/ml; BD Biosciences, Franklin Lakes, NJ) and soluble anti-CD28 (1 μg/ml; BD Biosciences) and expanded in culture medium containing 60 IU of IL-2. The conditions control/potassium hydroxycitrate (FIG. 7) were activated in the above conditions for a total of 10 days. For measuring T cell effector function, these cells were stimulated on day 10 in the indicated conditions for 5 h with anti-CD3 and -CD28 without IL-2 in the presence of brefeldin A and monesin (BD Biosciences).
(§1) For all flow cytometry experiments, T cells were stained with a fixable live/dead stain (Invitrogen, Waltham, MA) in phosphate buffered saline (PBS) followed by surface antibody staining in FACS buffer (PBS with 0.5% bovine serum albumin (BSA) and 0.1% sodium azide). For intracellular cytokine staining, cells were first stained for surface markers and later stained for intracellular molecules following fixation and permeabilization (BD CYTOFIX/CYTOPERM fixation/permeabilization solution kit). For phospho-staining, BD PHOSFLOW reagents (BD Biosciences) were used and protocols were carried out according to the manufacturer's protocols. After washing, cells were stained with phospho-antibodies purchased from Cell Signaling (Danvers, MA). […] All experiments were conducted on a BD FORTESSA flow cytometer (Becton Dickinson, Downers Grove, IL) and analyzed with FLOWJO software (TreeStar, Ashland, OR).
(§2) CD8+ Pmel-1 T cells were activated with mhgp100 peptide for 5 days in the presence of 5 mM potassium hydroxycitrate followed by secondary stimulation with anti-CD3 (1 μg/ml) and anti-CD28 (1 μg/ml) (FIG. 7A). Cells were analyzed for surface markers or intracellular cytokines on day 10.
Representative flow cytometry analysis and quantification of CD62L vs CD44 positive cells and IFN-γ+ production in T cells cultured in control or 2-hydroxy citrate (potassium hydroxycitrate (5 mM)) are shown in Table B and FIGS. 7A and 7B. […]

[5] = test system: CD8+ Pmel-1 T cells; experiment: Annexin V/PI FACS of live, apoptotic and necrotic populations; type: cell-based, mouse
Method: as §2
Representative FACS data defining the percentages of live (Annexin V−PI−), apoptotic (Annexin V+PI−) and necrotic populations (Annexin V+PI+) cultured in control or potassium hydroxycitrate are provided in Table C and FIG. 8.

[6] = test system: T cells; experiment: Acetate rescue: CD62L and IFN-γ by FACS; type: cell-based, mouse; details: control 49.4
Excerpt: as §1
T cells were treated with a combination of potassium hydroxycitrate and acetate, potassium hydroxycitrate alone, or negative control. Expression of CD62L was measured by fluorescence-activated cell sorting (FACS).
IFN-γ secretion was also measured by FACS (Table D) and quantified (FIG. 13) following treatment with control, potassium hydroxycitrate alone, or a combination of potassium hydroxycitrate and acetate.

[7] = test system: T cells; experiment: Autophagy by immunoblot, LC3II/LC3I ratio; type: cell-based, mouse; details: acetate 5 mM where present, control 0.7
Method: Ablation of autophagy was measured by immunoblot following treatment with a combination of potassium hydroxycitrate and 5 mM acetate, potassium hydroxycitrate only, or control (neither potassium hydroxycitrate nor acetate). Beta-actin was used as a control. Quantification of the autophagy flux was represented by ratio of LC3II/LC3I intensities.

[8] = test system: transferred Ly5.1+ CD8+ T cells in mice bearing B16-mhgp100 tumors; experiment: Persistence of transferred T cells in spleen of tumor-bearing mice; type: in vivo
[9] = test system: B16-mhgp100 tumors; experiment: Anti-tumor efficacy after adoptive transfer of treated Pmel-1 T cells; type: in vivo, mice; details: FIGS. 5, 6, 11
[10] = test system: adoptively transferred CD8+Ly5.1+ T cells; type: in vivo, mice; details: challenge with vaccinia rhgp100 1×10^7 PFU; negative control 7.8
[11] = test system: B16-mhgp100 tumors; experiment: Anti-tumor efficacy in B16 melanoma model, citrate vs potassium hydroxycitrate; type: in vivo, mice; details: T cells cultured in potassium hydroxycitrate or citrate; FIGS. 17A-17C
[12] = test system: human TIL; experiment: TNF and IL-2 expression of human TIL by FACS; type: cell-based; details: 2.5 or 5 mM, vs vehicle
Method: Human TIL were cultured without stimulation, in vehicle, or in potassium hydroxycitrate (2.5 or 5 mM). The cells were analyzed for the expression of tumor necrosis factor (TNF) and IL-2.

[13] = test system: Human CD8+ TILs; experiment: CD62L expression of human CD8+ TILs during rapid expansion, FACS; type: cell-based; details: 5 mM
Method: Human CD8^+ TILs from various histologies were cultured in the presence or absence (control) of potassium hydroxycitrate (5 mM). In brief, TILs from fresh tumor digests were subjected with 30 ng ml^−1 OKT3 to a rapid expansion protocol (REP) using irradiated peripheral blood mononuclear cells (PBMC) grown cultured in 3,000 IU ml-1 IL-2 in RPMI 1640 and AIM-V, supplemented with 5% in-house human serum 100 μg ml^−1 streptomycin and 100 μg ml^−1 penicillin, 2 mM 1-glutamine, 10 μg ml^−1 gentamicin, for approximately 14 days.
Expression of CD62L was measured by FACS. […] Specifically, FIG. 20 presents representative FACS data for human TIL showing relatively higher expression of the lymphoid homing marker CD62L during TIL expansion for potassium hydroxycitrate cultured TILs as compared to control TILs ([…], 14% increase). FIG. 21 is a graph showing the percentages of cells (% of maximum) expressing CD62L following treatment with negative control or potassium hydroxycitrate. FIGS. 22A and 22B show the quantification of the data shown in FIG. 21 for CD45RO^+ CD62L^+ for two patient samples (Patient A and Patient B).

For O=C([O-])CC(O)(C(=O)[O-])C(O)C(=O)[O-].[K+].[K+].[K+] (stereo not shown) [Potassium hydroxycitrate, potassium hydroxycitrate], the cytoplasmic citrate ([1]; T cells treated with potassium hydroxycitrate (ACLY inhibitor) vs negative control, FIG. 2A) was “citrate accumulation”, the “cytoplasmic AcCoA” value ([1]; T cells treated with potassium hydroxycitrate vs negative control, FIG. 2B) was “depletion of cytoplasmic AcCoA” and the “H3K9Ac deposition at the IFN-γ locus (ChIP-PCR quantification)” value [2] was “reduced H3K9Ac deposition”. The “percentage of mCherry positive cells which are GFP−” value ([3]; flow cytometry, loss of GFP = autophagic flux, negative control 12.1) was 33.2%, the “percentage of mCherry positive cells which are GFP+” value ([3]; flow cytometry, negative control 83.0) was 60.8% and the autophagy ([3]; vs negative control) was “Enhanced autophagy”. For the same compound, the “percentage of cells CD44+ CD62L+” value ([4]; day 10, negative control 3.5) was 30.7%, the “percentage of cells IFN-γ+” value ([4]; day 10, negative control 59.3) was 14.2% and the effector differentiation ([4]; vs control) was “blockade of effector differentiation”. The “percentage of cells PI+ Annexin+ (necrotic)” value ([5]; negative control 9.74) was 2.4%, the “percentage of cells PI− Annexin+ (apoptotic)” value ([5]; negative control 18.1) was 1.6% and the “percentage of cells PI− Annexin− (live)” value ([5]; negative control 71.0) was 95.2%. For the same compound, the cellular apoptosis ([5]; vs control) was “reduced cellular apoptosis”, the “percentage of IFN-γ positive cells” value [6] was 18.2% and the “autophagy flux, ratio of LC3II/LC3I intensities” value [7] was 2.1. For the same compound, the “in vivo persistence following adoptive transfer” value ([8]; T cells cultured in potassium hydroxycitrate vs control) was “enhanced in vivo persistence”, the “percentage Ly5.1+ CD8+ T cells in spleen” value ([8]; day 7 after transfer, tumor-bearing mice, negative control 9.2) was 46.3% and the antitumor efficacy [9] was “improved antitumor efficacy”. The “% Ly5.1+ CD8+ T cells, recall response” value [10] was 25.9%, the “antitumor efficacy in a B16 melanoma model” value [11] was “improves antitumor efficacy” and the “poly-functionality (TNF and IL-2 expression)” value [12] was “improves poly-functionality of human TIL”. The “CD62L expression, representative FACS data” value ([13]; about 14 days REP, control 56.2, FIG. 20) was 66.6, the “expression of the lymphoid homing marker CD62L during TIL expansion” value ([13]; vs control) was “maintained relatively higher expression” and the “increase of CD62L expression vs control TILs” value ([13]; FIG. 20) was 14%.

In the case of O=C(O)CC(O)(CC(=O)O)C(=O)O [Citrate, reference compound], the “antitumor efficacy in a B16 melanoma model” value [11] is reported as “but not citrate improves antitumor efficacy”.
